In article PMC8741506 (Poultry Science, 2021):

These molecules were tested against T1, IBV PLpro (Avian infectious bronchitis virus (strain M41), UniProt P0C6Y3) (assay: UB-AMC deubiquitination, fluorescence kinetics). Conditions: read-out: relative enzymatic activity at 100 μM.
Type: biochemical

T1 sequence (P0C6Y3 1177-1499): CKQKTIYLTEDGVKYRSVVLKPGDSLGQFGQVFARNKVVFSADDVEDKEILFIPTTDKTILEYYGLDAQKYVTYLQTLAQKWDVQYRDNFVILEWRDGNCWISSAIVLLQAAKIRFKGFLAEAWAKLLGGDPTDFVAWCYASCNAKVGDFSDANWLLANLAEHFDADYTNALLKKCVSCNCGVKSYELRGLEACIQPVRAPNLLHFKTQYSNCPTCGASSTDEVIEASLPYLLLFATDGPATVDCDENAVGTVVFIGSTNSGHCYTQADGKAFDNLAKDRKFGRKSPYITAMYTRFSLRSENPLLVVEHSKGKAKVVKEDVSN

O=c1cc(-c2ccccc2)oc2cc(O)c(O)c(O)c12 [baicalein] was tested. Which activity at 100 µM did it give?
Its activity at 100 µM is less than 20%.

O=c1cc(-c2ccccc2)oc2cc(O)cc(O)c12 [chrysin] was tested. Which activity at 100 µM did it give?
The activity at 100 µM was less than 20%.

How did the activity at 100 µM turn out when COc1ccc(-c2oc3c(CC=C(C)C)c(O[C@@H]4O[C@H](CO)[C@@H](O)[C@H](O)[C@H]4O)cc(O)c3c(=O)c2O[C@@H]2O[C@@H](C)[C@H](O)[C@@H](O)[C@H]2O)cc1 [icariin] was run?
Its activity at 100 µM is less than 20%.

Which activity at 100 µM does the source give for O=c1c2cc(O)c(O)cc2oc2cc(O)c([C@@H]3O[C@H](CO)[C@@H](O)[C@H](O)[C@H]3O)c(O)c12 [mangiferin] here?
The activity at 100 µM was less than 20%.

For C[C@@H]1O[C@@H](O[C@H]2[C@H](Oc3cc(O)c4c(c3)O[C@H](c3ccc(O)cc3)CC4=O)O[C@H](CO)[C@@H](O)[C@@H]2O)[C@H](O)[C@H](O)[C@H]1O [naringin], which activity at 100 µM is on record?
Its activity at 100 µM is less than 20%.

These molecules were tested against T1, IBV PLpro (assay: UB-AMC deubiquitination, fluorescence kinetics). Conditions: not given.
Type: biochemical

How did the IC50 turn out when O=c1c(O)c(-c2cc(O)c(O)c(O)c2)oc2cc(O)cc(O)c12 [myricetin] was run?
Its IC50 is 10.6 µM.
